According to paper PMC12040169 (PLOS Biology, 2025):

Assay: in vitro
Settings: human, hela cells, % viability

Structure (SMILES)	viability at 28.5 h, 10 µM [%]
CCN1CCN(c2cc(N3CCN(C(=O)COc4ccccc4F)C(C)C3)c([N+](=O)[O-])cc2F)CC1 (stereo not drawn) [CBK267513]	100
O=C(Nc1nonc1-c1nc2ccccc2n1CCOC(=O)c1ccc(F)cc1)c1ccc(F)cc1 [CBK062653]	102
Cc1sc(-c2c(F)cccc2F)nc1O [CBK067729]	102
O=C(NCCCO)c1ccc(/C=N/O)nc1 [CBK264560]	97.7
O=C(Nc1ccc(-c2nc3cc(-c4nc5cc(NC(=O)c6cccs6)ccc5[nH]4)ccc3[nH]2)cc1)c1cccs1 [CBK261614]	97.6
CC(C)(C)c1cc(N)c(C(N)=O)s1 [CBK016752]	91.3
CCc1noc(C)c1C(=O)NCCN1CCCCC1C (stereo not drawn) [CBK282219]	98.9
CC(CCc1ccccc1)NC1CCCc2c1[nH]c1ccc([N+](=O)[O-])cc21 (stereo not drawn) [CBK262875]	73.2
O=C(O)CCC(=O)Nc1cc(C(F)(F)F)ccc1N1CCCC1 [CBK057434]	94.2
Cc1cc(NC(=O)c2cccc(C#N)c2)c2ccccc2n1 [CBK116267]	101
CC(C)(C)C1=CC2=NC3(CCC3)C3C[C@](O)(Cc4ccccc4)[C@@H](O)[C@@H]3N2O1 (stereo partly drawn) [CBK303261]	95.7
CC(CNS(=O)(=O)c1cc(Cl)ccc1Cl)CN(C)C (stereo not drawn) [CBK266808]	108
O=C(CCc1cccnc1)Nc1cnc(-c2cccc(OC(F)(F)F)c2)c(-c2cccnc2)n1 [CBK036811]	94.5
O=C(Nc1sc2c(c1C(=O)NCc1cccnc1)CCC2)c1ccco1 [CBK269599]	81
N#Cc1ccc(OCC(=O)Nc2ncccn2)cc1 [CBK304578]	85.4
Cc1c(C(N)=O)sc2nc(C(F)(F)F)cc(N)c12 [CBK061693]	97.1
CC(C)C(=O)NC(=S)Nc1ccc2oc(-c3ccncc3)nc2c1 [CBK269702]	96.4
CN(C)Cc1ccc(C(=O)N2CCc3[nH]c4ccccc4c3C2)cc1 [CBK281847]	82.9
CCOc1cc(NC2CCN(C(=O)Cc3cc(C)on3)CC2)ncn1 [CBK304689]	113
O=S(=O)(Nc1cccc(-c2cnco2)c1)c1ccc(Br)cc1C(F)(F)F [CBK067118]	93.4
COc1ccc(Cl)cc1NC(=O)CCSc1ccccc1 [CBK263969]	85
CC(C)(C)NC(=O)COc1ccc(CNc2nc[nH]n2)cc1 [CBK288179]	89.3
N#CCCCN1CCC(Oc2nccnc2OCCN2C(=O)CCC2=O)CC1 [CBK084349]	99.4

Structure (SMILES)	viability at 28.5 h, 10 µM [%]
O=C(O)[C@H]1CN(C(=O)c2ccco2)C[C@@H]1c1ccc(F)cc1 [CBK283735]	105
Cc1nnc(SCC(=O)NCCc2ccccc2)nc1O [CBK268045]	92
COCC(=O)N1CCc2sccc2C1c1ccc(NC(=O)c2ccccc2F)cc1 (stereo not drawn) [CBK286469]	87.5
O=C(Cc1c[nH]cn1)N1CCCC2(CCN(C(=O)c3cc(F)c(F)cc3F)C2)C1 (stereo not drawn) [CBK137072]	95.6
CCCC(=O)Nc1ccccc1NC(=O)c1ccc2c(c1)OCO2 [CBK265841]	103
CC(C)(C)c1ccc(-n2cc(-c3ccc(F)cc3F)nn2)cc1 [CBK094818]	85.4
CC(C)[C@H](CO)Nc1nc(-c2ccc3c(c2)OCO3)cn2ccnc12 [CBK038071]	101
CC1CCCN(C(=O)CC(NC(N)=O)c2cccc(Br)c2)CC1 (stereo not drawn) [CBK305804]	91.7
CCOC(=O)CCNC(=O)c1cc2cccc(OC)c2o1 [CBK149816]	88.1
CC(C)c1ccccc1OCC(=O)OCCN1C(=O)c2ccccc2C1=O [CBK264841]	92.2
Nc1ccc(-c2ccccc2)c2ccccc12 [CBK084312]	97.1
CN1CCC2(CC1)NCCc1c2ccn1S(=O)(=O)c1ccc(I)cc1 [CBK061945C]	111
Nc1nonc1-c1nc2ccccc2[nH]1 [CBK062657]	89.4
CC(C)(C)OC(=O)N1CCC(OCc2cn(-c3ccc(-n4cncn4)cc3)nn2)CC1 [CBK149477]	87.1
O=S(=O)(NCC(O)Cn1c2ccc(Cl)cc2c2cc(Cl)ccc21)c1ccccc1 (stereo not drawn) [CBK262542]	88.6
Cc1ccc(C(=O)C2=C(O)C(=O)N(CCCN(C)C)C2c2ccccn2)o1 (stereo not drawn) [CBK269575]	89.1
O=C(Cn1cnnn1)NC1CCCC1 [CBK200372]	94.9
CC1(C)Cc2c(c(-c3ccco3)nc3n[nH]c(N)c23)CO1 [CBK009252]	84.3
COc1ccc(CCC(=O)N2CCC(c3cccc(Cc4cccc(F)c4)n3)CC2)cc1 [CBK286212]	105
CCOC(=O)C1(O)CCN(c2ccc(C#N)cc2F)CC1 [CBK304836]	94
COc1ccccc1CN(CC(C)(C)CN)C(=O)NC1C[C@H]1c1ccccc1 (stereo partly drawn) [CBK002424C]	89.6
Cc1nn(Cc2cccc3ccccc23)c(C)c1NC(=O)c1ccccn1 [CBK269936]	105
CCC(C)c1csc(C2CN3CCCC3CO2)n1 (stereo not drawn) [CBK304805]	81.5

Structure (SMILES)	viability at 28.5 h, 10 µM [%]
Cc1cc(N2C(=O)NS(=O)(=O)c3cccnc32)ccc1F [CBK288461]	90.5
O=C(COc1ccccc1Cl)Nc1nnc[nH]1 [CBK287946]	80.1
CN(CC(=O)Nc1ccc(N(C)C)cc1)Cc1ccc(F)cc1 [CBK295188]	86.1
CN1C(CC(O)c2ccccc2)CCCC1C(=O)c1ccccc1 (stereo not drawn) [CBK268467C]	98.8
Cc1cc(NC(=O)N2CCCN(CC3CCCCC3)CC2)no1 [CBK306239]	99.9
OCCN(CCO)c1cncc(-c2ccc(F)c(Cl)c2)n1 [CBK066015]	96.3
Cc1ccc(C2=CCN(CC(=O)Nc3ccccn3)CC2)o1 [CBK283634]	98.7
O=C(O)c1ccc(/C=N/N2CCN(Cc3ccccc3)CC2)cc1 [CBK265344]	108
Cc1csc(CNCc2c(C)nn(C)c2N(C)C)n1 [CBK304804]	103
O=C(Nc1ccc2n(c1=O)C[C@H]1C[C@@H]2CN(C(=O)Nc2ccc(F)cc2)C1)c1ccco1 [CBK289205]	85.4
Cc1cc2ccccc2n1CCCNC(=O)c1ccc(=O)n(C)c1 [CBK282982]	104
COc1ccc(S(=O)(=O)NC(C)C(=O)NCc2cccnc2)cc1Cl (stereo not drawn) [CBK269384]	95.8
CC(C)(C)c1ccc(C(=O)N2CCC3(CC2)CC(=O)N(Cc2ccc(S(C)(=O)=O)cc2)C3=O)cc1 [CBK155018]	106
Cc1ccccc1C(=O)NCC(=O)Nc1ccc(Br)c2ccccc12 [CBK091343]	98
Cc1noc(-c2cn(C)nc2C2CCCCN2CC2CC2)c1C (stereo not drawn) [CBK283408]	88.1
O=c1oc2c(CN3CCN(CCO)CC3)c(O)ccc2cc1-c1nc(-c2ccc(Br)cc2)cs1 [CBK264949]	103
COc1cccc(C(O)CN2CCC3(CC2)CC(O)c2cc(C)ccc2O3)c1 (stereo not drawn) [CBK286338]	88.4
Cc1cc(C2CCCN2C(=O)c2ccc(C(F)(F)F)nc2)on1 (stereo not drawn) [CBK305761]	88.6
O=C(c1ccccc1)N1CCCC(c2nnc(-c3cccs3)o2)C1 (stereo not drawn) [CBK283059]	103
O=C(Nc1ccccc1N1CCNCC1)C1CCC1 [CBK004755T]	90.9
Cc1ccc(CNC(=O)Cn2nnc(-c3ccc(CN4CC(C)OC(C)C4)cc3)n2)cc1 (stereo not drawn) [CBK144554C]	64.2
O=C(NCc1ccccc1)/C(=N\O)c1ccccc1 [CBK288427]	91.9
Cc1nc(CN2CCC3(CC2)CN(S(C)(=O)=O)c2ccccc23)cs1 [CBK126687]	96.3

Structure (SMILES)	viability at 28.5 h, 10 µM [%]
CC1CCN(S(=O)(=O)c2ccc3c(c2)oc(=O)c2cc(S(=O)(=O)N4CCC(C)CC4)ccc23)CC1 [CBK266314]	100
Cc1cc(C)c2nn[nH]c2c1CN1CCCC1 [CBK018196]	100
Cc1ccccc1Nc1nc(N)nc(CN2CCCC2)n1 [CBK306152]	102
CCc1cc(OCc2ccc(Cn3nc(NC(C)=O)c4ccccc43)cc2)c2ccccc2n1 [CBK048402]	91
NC(=O)OC(c1ccccc1[N+](=O)[O-])P(=O)(c1ccccc1)c1ccccc1 (stereo not drawn) [CBK261383]	88.3
Cc1ccc2c(c1)c(=O)cc(C(F)(F)F)n2C[C@H]1CCCN1 [CBK285303]	36.2
CC(O)c1ccc(-c2ccc(CNCCCN3CCOCC3)o2)cc1 (stereo not drawn) [CBK278178C]	95.4
O=C(COc1ccc(S(=O)(=O)NC2CCCCC2)cc1)Nc1ccc2c(c1)OCO2 [CBK265960]	84.5
Clc1ccc(OCCOc2nccnc2N2CCNCC2)cn1 [CBK014049G]	92.5
C=Cn1ncc(CN2CCC3(O)CCCCC3C2)c1C (stereo not drawn) [CBK283302]	94.5
O=C(CN1CCN(c2ncccn2)CC1)N1N=CCC1c1ccccc1 (stereo not drawn) [CBK270184]	89.4
COc1cccc(Oc2nccnc2-c2cccs2)c1 [CBK107059]	91.6
OC(CNc1nccnc1-c1ccccc1Cl)COc1ccccc1 (stereo not drawn) [CBK037085]	92
Cc1cc(NCC2CCCO2)n2ncc(-c3ccccc3)c2n1 (stereo not drawn) [CBK304530]	83.8
O=C(O)CCC(=O)NCC1(c2ccccc2)CCCC1 [CBK286679]	89.7
CNC(=O)C1(Cc2ccccc2-c2cccs2)CCN(C(=O)c2ccccc2OC)CC1 [CBK285685]	107
Cc1cc(-c2cc3nc(C)c(C)c(O)n3n2)c(C)o1 [CBK284500]	90.4
O=C(COc1ccc(NS(=O)(=O)c2ccc3oc4cc([N+](=O)[O-])ccc4c3c2)cc1)N1CCOCC1 [CBK268252]	100
COc1cccc2ncn(CCCc3nc(C)c(C)s3)c(=O)c12 [CBK307208]	95.2
Cc1nn(CC(=O)N2CCCC(C)C2)c(=O)c2cc3occc3n12 (stereo not drawn) [CBK283623]	91.6
CCONC(=O)c1cc(-c2ccccc2C)nc2c1cnn2C(C)C [CBK304048]	95.5
